Reference: the NIST ThermoML archive (doi:10.1021/je900922x)
Numbers after ± are expanded uncertainties.

Key:
[1] = Liquid, Pycnometric method
[2] = molar heat capacity at constant pressure; settings: Liquid, metal-bellows calorimeter

COC [dimethyl ether]
Settings	mass density, [1] [kg/m3]	molar heat capacity at constant pressure, [2] [J/K/mol]
310 K, 2000 kPa	643.5 ± 1.8	123.92 ± 6
310 K, 3000 kPa	646 ± 1.8	122.08 ± 6
310 K, 4000 kPa	648 ± 1.8	121.62 ± 6
310 K, 5000 kPa	650.2 ± 1.7	121.16 ± 6
320 K, 2000 kPa	626 ± 1.8	127.61 ± 6.4
320 K, 3000 kPa	628.7 ± 1.8	125.77 ± 6.4
320 K, 4000 kPa	631.1 ± 1.8	124.85 ± 6.4
320 K, 5000 kPa	634.3 ± 1.7	124.85 ± 6.4
330 K, 2000 kPa	606.5 ± 1.9	131.3 ± 6.4
330 K, 3000 kPa	609.8 ± 1.9	128.53 ± 6.4
330 K, 4000 kPa	613.4 ± 1.8	128.07 ± 6.4
330 K, 5000 kPa	616.5 ± 1.8	127.15 ± 6.4
340 K, 2000 kPa	585.3 ± 1.9	137.74 ± 6.9
340 K, 3000 kPa	589.6 ± 1.9	134.98 ± 6.9
340 K, 4000 kPa	593.6 ± 1.9	132.22 ± 6.4
340 K, 5000 kPa	597.4 ± 1.9	129.45 ± 6.4
350 K, 3000 kPa	566.8 ± 2.1	140.51 ± 6.9
350 K, 4000 kPa	572 ± 2	137.28 ± 6.9
350 K, 5000 kPa	576.7 ± 1.9	132.68 ± 6.4
360 K, 3000 kPa	540.2 ± 2.2	153.87 ± 7.8
360 K, 4000 kPa	547.4 ± 2.1	145.12 ± 7.4
360 K, 5000 kPa	553.5 ± 2	136.36 ± 6.9
